Laboratory results from PubChem BioAssay AID1259407 (Chemical Carcinogenesis Research Information System (CCRIS), 2018).
The source made the active and inactive calls. No rule for the calls is given here.

Test system: CCRIS mutagenicity, Ames/micronucleus/aberration tests
Assay: CCRIS mutagenicity studies
[1] = Test System: AMES SALMONELLA TYPHIMURIUM, Strain/Indicator: TA98, Metabolic Activation: NONE, Method: PREINCUBATION
[2] = Test System: AMES SALMONELLA TYPHIMURIUM, Strain/Indicator: TA100, Metabolic Activation: NONE, Method: STANDARD PLATE
[3] = Test System: AMES SALMONELLA TYPHIMURIUM, Strain/Indicator: TA1535, Metabolic Activation: NONE, Method: PREINCUBATION
[4] = Test System: AMES SALMONELLA TYPHIMURIUM, Strain/Indicator: TA1537, Metabolic Activation: NONE, Method: PREINCUBATION
[5] = Test System: AMES SALMONELLA TYPHIMURIUM, Strain/Indicator: TA98, Metabolic Activation: NONE, Method: STANDARD PLATE
[6] = Test System: AMES SALMONELLA TYPHIMURIUM, Strain/Indicator: TA98, Metabolic Activation: RAT, LIVER, S-9, AROCLOR 1254 (10%), Method: PREINCUBATION
[7] = Test System: AMES SALMONELLA TYPHIMURIUM, Strain/Indicator: TA100, Metabolic Activation: HAMSTER, LIVER, S-9, AROCLOR 1254 (10%), Method: PREINCUBATION
[8] = Test System: AMES SALMONELLA TYPHIMURIUM, Strain/Indicator: TA100, Metabolic Activation: NONE, Method: PREINCUBATION
[9] = Test System: AMES SALMONELLA TYPHIMURIUM, Strain/Indicator: TA100, Metabolic Activation: RAT, LIVER, S-9, AROCLOR 1254 (10%), Method: PREINCUBATION
[10] = Test System: AMES SALMONELLA TYPHIMURIUM, Strain/Indicator: TA1535, Metabolic Activation: HAMSTER, LIVER, S-9, AROCLOR 1254 (10%), Method: PREINCUBATION
[11] = Test System: AMES SALMONELLA TYPHIMURIUM, Strain/Indicator: TA1535, Metabolic Activation: RAT, LIVER, S-9, AROCLOR 1254 (10%), Method: PREINCUBATION
[12] = Test System: AMES SALMONELLA TYPHIMURIUM, Strain/Indicator: TA1537, Metabolic Activation: HAMSTER, LIVER, S-9, AROCLOR 1254 (10%), Method: PREINCUBATION
[13] = Test System: AMES SALMONELLA TYPHIMURIUM, Strain/Indicator: TA1537, Metabolic Activation: RAT, LIVER, S-9, AROCLOR 1254 (10%), Method: PREINCUBATION

For O=[N+]([O-])c1cc(Cl)ccc1Cl, the mutagenic call (End Point: IN VITRO CHROMOSOMAL ABERRATIONS, Test System: CHL CELLS, Metabolic Activation: RAT, LIVER, S-9, SODIUM PHENOBARBITAL AND 5,6-BENZOFLAVONE) was “active; positive (structural changes); authors report equivocal results for ploidy chang”, the mutagenic call [1] was “inactive; negative” and the mutagenic call (Test System: AMES SALMONELLA TYPHIMURIUM, Strain/Indicator: TA98, Metabolic Activation: RAT LIVER S-9, PHENOBARBITAL AND BETA-NAPHTHOFLAVONE, Method: PREINCUBATION) was “inactive; negative”. The mutagenic call (Test System: AMES SALMONELLA TYPHIMURIUM, Strain/Indicator: TA98, Metabolic Activation: RAT, LIVER, S-9, KANECHLOR 500, Method: PREINCUBATION) was “inactive; negative”, the mutagenic call [2] was “inactive; negative” and the mutagenic call (Test System: AMES SALMONELLA TYPHIMURIUM, Strain/Indicator: TA100, Metabolic Activation: RAT LIVER S-9, PHENOBARBITAL AND BETA-NAPHTHOFLAVONE, Method: PREINCUBATION) was “active; positive”. For the same compound, the mutagenic call (Test System: AMES SALMONELLA TYPHIMURIUM, Strain/Indicator: TA100, Metabolic Activation: RAT, LIVER, S-9, KANECHLOR 500, Method: PREINCUBATION) was “active; positive”, the mutagenic call [3] was “inactive; negative” and the mutagenic call (Test System: AMES SALMONELLA TYPHIMURIUM, Strain/Indicator: TA1535, Metabolic Activation: RAT LIVER S-9, PHENOBARBITAL AND BETA-NAPHTHOFLAVONE, Method: PREINCUBATION) was “inactive; negative”. The mutagenic call [4] was “inactive; negative”, the mutagenic call (Test System: AMES SALMONELLA TYPHIMURIUM, Strain/Indicator: TA1537, Metabolic Activation: RAT LIVER S-9, PHENOBARBITAL AND BETA-NAPHTHOFLAVONE, Method: PREINCUBATION) was “inactive; negative” and the mutagenic call (Test System: AMES SALMONELLA TYPHIMURIUM, Strain/Indicator: TA1538, Metabolic Activation: NONE, Method: PREINCUBATION) was “inactive; negative”. For the same compound, the mutagenic call (Test System: AMES SALMONELLA TYPHIMURIUM, Strain/Indicator: TA1538, Metabolic Activation: RAT LIVER S-9, PHENOBARBITAL AND BETA-NAPHTHOFLAVONE, Method: PREINCUBATION) was “inactive; negative”, the mutagenic call (Test System: E.COLI, Strain/Indicator: WP2UVRA, Metabolic Activation: NONE, Method: PREINCUBATION) was “inactive; negative” and the mutagenic call (Test System: E.COLI, Strain/Indicator: WP2UVRA, Metabolic Activation: RAT LIVER S-9, PHENOBARBITAL AND BETA-NAPHTHOFLAVONE, Method: PREINCUBATION) was “inactive; negative”.
CCC1(CC(=O)O)OCCc2c1[nH]c1c(C(C)O)cccc21 (stereo unspecified) was tested, and the mutagenic call [5] was “inactive; negative”, the mutagenic call (Test System: AMES SALMONELLA TYPHIMURIUM, Strain/Indicator: TA98, Metabolic Activation: RAT, LIVER, S-9, Method: STANDARD PLATE) was “inactive; negative” and the mutagenic call [2] was “inactive; negative”. The mutagenic call (Test System: AMES SALMONELLA TYPHIMURIUM, Strain/Indicator: TA100, Metabolic Activation: RAT, LIVER, S-9, Method: STANDARD PLATE) was “inactive; negative”, the mutagenic call (Test System: AMES SALMONELLA TYPHIMURIUM, Strain/Indicator: TA1535, Metabolic Activation: NONE, Method: STANDARD PLATE) was “inactive; negative” and the mutagenic call (Test System: AMES SALMONELLA TYPHIMURIUM, Strain/Indicator: TA1535, Metabolic Activation: RAT, LIVER, S-9, Method: STANDARD PLATE) was “inactive; negative”. The mutagenic call (Test System: AMES SALMONELLA TYPHIMURIUM, Strain/Indicator: TA1537, Metabolic Activation: NONE, Method: STANDARD PLATE) was “inactive; negative”, the mutagenic call (Test System: AMES SALMONELLA TYPHIMURIUM, Strain/Indicator: TA1537, Metabolic Activation: RAT, LIVER, S-9, Method: STANDARD PLATE) was “inactive; negative” and the mutagenic call (Test System: E. COLI, Strain/Indicator: WP2 UVRA, Metabolic Activation: NONE, Method: STANDARD PLATE) was “inactive; negative”. For the same compound, the mutagenic call (Test System: E. COLI, Strain/Indicator: WP2 UVRA, Metabolic Activation: RAT, LIVER, S-9, Method: STANDARD PLATE) was “inactive; negative”.
In the case of O=P(OCCCl)(OCCCl)OCCCl, the mutagenic call (End Point: IN VITRO CHROMOSOMAL ABERRATIONS, Test System: CHINESE HAMSTER OVARY CELLS, Metabolic Activation: NONE) is reported as “inactive; negative”, the mutagenic call (End Point: IN VITRO CHROMOSOMAL ABERRATIONS, Test System: CHINESE HAMSTER OVARY CELLS, Metabolic Activation: RAT, LIVER, S-9, AROCLOR 1254) is reported as “inactive; negative” and the mutagenic call (Test System: AMES SALMONELLA TYPHIMURIUM, Strain/Indicator: TA98, Metabolic Activation: HAMSTER, LIVER, S-9, AROCLOR 1254 (10%), Method: PREINCUBATION) is reported as “inactive; negative”. The mutagenic call [1] was “inactive; negative”, the mutagenic call [6] was “inactive; negative” and the mutagenic call [7] was “inactive; negative”. The mutagenic call [8] was “inactive; negative”, the mutagenic call [9] was “inactive; negative” and the mutagenic call (Test System: AMES SALMONELLA TYPHIMURIUM, Strain/Indicator: TA100, Metabolic Activation: RAT, LIVER, S-9, PCB, Method: STANDARD PLATE) was “active; positive”. The mutagenic call [10] was “inactive; negative”, the mutagenic call [3] was “inactive; negative” and the mutagenic call [11] was “inactive; negative”. The mutagenic call (Test System: AMES SALMONELLA TYPHIMURIUM, Strain/Indicator: TA1535, Metabolic Activation: RAT, LIVER, S-9, PCB, Method: STANDARD PLATE) was “active; positive”, the mutagenic call [12] was “inactive; negative” and the mutagenic call [4] was “inactive; negative”. The mutagenic call [13] was “inactive; negative”.
CC[C@@H](C)[C@@H](N)C(=O)OC was tested, and the mutagenic call (End Point: IN VIVO MICRONUCLEUS, Test System: BONE MARROW POLYCHROMATIC ERYTHROCYTES, Species: MOUSE, Strain/Sex: DDY/MALE, Route: IP) was “inactive; negative”.
With CC(C)(C)N.CC(C)(C)N.[Cl][Pt][Cl] the mutagenic call (Test System: AMES SALMONELLA TYPHIMURIUM, Strain/Indicator: TA92, Metabolic Activation: NONE, Method: STANDARD PLATE) was “inactive; negative”, the mutagenic call [5] was “active; positive” and the mutagenic call [2] was “active; positive”. The mutagenic call (Test System: AMES SALMONELLA TYPHIMURIUM, Strain/Indicator: TA2410, Metabolic Activation: NONE, Method: STANDARD PLATE) was “active; positive”.
In the case of Nc1cccc(Cl)c1, the mutagenic call (End Point: IN VITRO CHROMOSOMAL ABERRATIONS, Test System: CHL/IU CELLS, Metabolic Activation: NONE) is reported as “active; positive (structural changes)”, the mutagenic call (End Point: IN VITRO MICRONUCLEUS, Test System: CHL/IU CELLS, Metabolic Activation: NONE) is reported as “active; positive” and the mutagenic call [1] is reported as “inactive; negative”. For the same compound, the mutagenic call [6] was “inactive; negative”, the mutagenic call [7] was “inactive; negative” and the mutagenic call [8] was “inactive; negative”. The mutagenic call [9] was “inactive; negative”, the mutagenic call [10] was “inactive; negative” and the mutagenic call [3] was “inactive; negative”. The mutagenic call [11] was “inactive; negative”, the mutagenic call [12] was “inactive; negative” and the mutagenic call [4] was “inactive; negative”. For the same compound, the mutagenic call [13] was “inactive; negative”, the mutagenic call (Test System: CHINESE HAMSTER V-79, Strain/Indicator: V-79/8-AZAGUANINE, Metabolic Activation: NONE, Method: SUSPENSION/PLATE) was “active; positive” and the mutagenic call (Test System: CHINESE HAMSTER V-79, Strain/Indicator: V-79/OUABAIN, Metabolic Activation: NONE, Method: SUSPENSION/PLATE) was “inactive; negative”.
